From PMC12495412, “Coumarin/nitrogen-bearing heterocyclic hybrid-loaded electrospun PMMA/PVP nanofibrous scaffolds for accelerating topical wound healing rates: synthesis and in vitro bio-evaluation” (RSC Advances, 2025)
In brackets after ≈: the same amount, converted by molar mass.

Assays:
Wi-38 cells = assay: MTT cytotoxicity assay, normal cells; assay type: cell-based; conditions: normal human lung fibroblast cells, 48 h
Excerpt: (§1) MTT assay: the normal cell line (Wi-38), colon cancer (Caco-2), lung cancer (A549), and breast cancer (MDA) cell lines were sourced from ATCC, USA. All different cell lines were cultivated and preserved in DMEM medium (SERANA, Germany), accompanied by 10% FBS (Gibco, USA) and 1% Pen/Strep solution (Lonza, USA). The newly prepared derivatives at various doses were considered for their anticancer activity and their safety on normal cells, applying MTT (3-[4, 5-dimethylthiazol]-2, 5-diphenyltetrazolium bromide) methods.[22] At first, all normal and cancer cell lines (1.0 ×10^4) were inoculated in 4 antiseptic 96-well tissue culture microplates and incubated for 24 h in a CO2 incubator. After cell attachments, the prepared derivatives were added to both normal Wi-38 cells at diverse concentrations of (6.25–200 μg mL^−1, 2-fold) and cancer cells at different concentrations of (3.125–100 μg mL^−1, 2-fold) in triplicate and incubated for another 48 h at 37 °C in a CO2 incubator with an adjusted concentration of 5%. After that, the treated cells were cleaned three times with PBS to remove debris and dead cells. Next, 200 μL of 0.5 mg mL^−1 MTT dye solution in PBS was mixed in each well, and the cells were further kept for 3 h at 37 °C in a 5% CO2 incubator. After that, MTT was removed and 200 μL of DMSO was added to each well. The optical density (OD) was recorded at 570 nm via a microplate reader (B.M.G. LabTech, Germany). Basic cells (untreated) were utilized as negative control cells, and 5-fluorouracil (5-FU) was included as a standard chemotherapy drug. The qualified cell viability (%) was evaluated as in equation (eqn (1)):1 Relative cell viability (%) = […] A1 is the OD of the examined derivative, A0 is the OD of the standard, and AU is the OD of the untreated cells.
(§2) Anticancer activity assay: the anticancer effect of each derivative was assessed by evaluating the half-maximal inhibitory concentration (IC50) value via the GraphPad Prism 7.0 software. However, SI (selective index) values of each derivative were estimated by splitting the IC50 value of healthy cells by the IC50 value of malignant cells, as previously reported.[23] The effects of the created derivatives on the morphology of MDA cells were evaluated at IC50 doses and captured by phase-contrast microscopy (Olympus, Germany) in comparison to untreated control cells.

Caco-2 cells = assay: MTT anticancer assay; assay type: cell-based; conditions: for SI Caco-2: IC50 Wi-38 / IC50 Caco-2; for IC50 Caco-2: colon carcinoma cells, MTT, 48 h
Excerpt: as §1, §2

A549 cells [1] = assay: MTT anticancer assay; assay type: cell-based, human; conditions: lung carcinoma cells, 48 h
Excerpt: as §1, §2

MDA cells = assay: MTT anticancer assay; assay type: cell-based, human; conditions: breast carcinoma cells, 48 h
Excerpt: as §1, §2

A549 cells [2] = assay: Wound healing scratch (anti-migration) assay; assay type: cell-based, human; conditions: IC50 doses, 48 h
Method: To assess the anti-migration inhibition capability of newly synthesized derivatives, a wound healing technique was employed. A549 cells were planted in 12-well plates and kept alive at 37 °C until they achieved 80–90% fluency. The cell monolayers were smashed with a sterile tip and exposed to the prepared derivatives at IC50 doses. At 0 and 48 h of treatment, the wound closure area was captured and calculated by imaging analysis with the Cell-Sens software (Olympus, Japan).

S. aureus = assay: Agar-well diffusion of synthesized compounds; assay type: cell-based, Staphylococcus aureus ATCC 25923; conditions: 100 μL of 10 mg mL^−1 per well, 24 h, 37 °C
Excerpt: The antimicrobial activity of the prepared compounds was estimated through an agar-well diffusion method as adapted from the modified Kirby–Bauer protocol.[24] In this test, microbial pathogens were applied, including Staphylococcus aureus ATCC 25923 (S. aureus), Streptococcus mutans ATCC 25175 (S. mutans), Bacillus cereus ATCC 19637 (B. cereus), Bacillus aureus ATCC 25923 (B. aureus), Bacillus epidermidis ATCC 14990 (B. epidermidis), and Bacillus subtilis ATCC 11774 (B. subtilis) as Gram-positive bacteria, and Pseudomonas aeruginosa ATCC 27853 (P. aeruginosa), Klebsiella pneumonia ATCC 13883 (K. pneumonia), and Salmonella typhimurium ATCC 14028 (S. typhimurium), Salmonella pneumoniae ATCC 10031(S. pneumoniae), Escherichia coli ATCC 10536 (E. coli), and Salmonella paratyphi ATCC 9150 (S. paratyphi) as Gram-negative bacteria. Additionally, Candida albicans (ATCC 10231), Candida krusei ATCC 6258 (C. krusei), Candida glabrata ATCC 66032 (C. glabrata), andCandida parapsilosis ATCC 22019 (C. parapsilosis) were applied as models of unicellular fungi. The pre-inoculation cultures of the pathogens were prepared on Muller–Hinton broth and cultivated for 24 h at 37 °C. The agar-well test was prepared on Muller–Hinton agar with 100 μL of each pathogen pre-culture (0.5 McFarland conc.) and uniformly distributed on the plate surface. […]

S. mutans = assay: Agar-well diffusion of synthesized compounds; assay type: cell-based, Streptococcus mutans ATCC 25175; conditions: 100 μL of 10 mg mL^−1 per well, 24 h, 37 °C
Excerpt: The antimicrobial activity of the prepared compounds was estimated through an agar-well diffusion method as adapted from the modified Kirby–Bauer protocol.[24] In this test, microbial pathogens were applied, including Staphylococcus aureus ATCC 25923 (S. aureus), Streptococcus mutans ATCC 25175 (S. mutans), Bacillus cereus ATCC 19637 (B. cereus), Bacillus aureus ATCC 25923 (B. aureus), Bacillus epidermidis ATCC 14990 (B. epidermidis), and Bacillus subtilis ATCC 11774 (B. subtilis) as Gram-positive bacteria, and Pseudomonas aeruginosa ATCC 27853 (P. aeruginosa), Klebsiella pneumonia ATCC 13883 (K. pneumonia), and Salmonella typhimurium ATCC 14028 (S. typhimurium), Salmonella pneumoniae ATCC 10031(S. pneumoniae), Escherichia coli ATCC 10536 (E. coli), and Salmonella paratyphi ATCC 9150 (S. paratyphi) as Gram-negative bacteria. Additionally, Candida albicans (ATCC 10231), Candida krusei ATCC 6258 (C. krusei), Candida glabrata ATCC 66032 (C. glabrata), andCandida parapsilosis ATCC 22019 (C. parapsilosis) were applied as models of unicellular fungi. The pre-inoculation cultures of the pathogens were prepared on Muller–Hinton broth and cultivated for 24 h at 37 °C. The agar-well test was prepared on Muller–Hinton agar with 100 μL of each pathogen pre-culture (0.5 McFarland conc.) and uniformly distributed on the plate surface. Under aseptic conditions, six wells were created on the agar surface using a sterile corkborer (9 mm). To each well, 100 μL of the prepared compound (10 mg mL^−1) was separately inserted into each plate. All plates were incubated for 24 h at 37 °C; the established inhibition zones (Halo-zones) surrounding the wells indicated positive antimicrobial activity and were stated as the radius of the inhibition zone (mm).

Row | SI Caco-2 (Caco-2 cells) | IC50 Caco-2 (Caco-2 cells) | IC50 A549 (A549 cells [1]) | IC50 MDA (MDA cells) | Compound | IC50 Wi-38 (Wi-38 cells) | Migration inhibition (A549 cells [2]) | Inhibition zone (S. aureus) | Inhibition zone (S. mutans)
1 | 4.59 ± 0.37 | 38.23 ± 1.64 µg/mL (≈ 142 µM) | 32.05 ± 2.18 µg/mL (≈ 119 µM) | 14.91 ± 0.96 µg/mL (≈ 55.3 µM) | Nc1ccc(Nc2ccnc3cc(Cl)ccc23)cc1 [Compound A1] | 175.3 ± 14.08 µg/mL (≈ 650 µM) | – | – | –
2 | 15.94 ± 1.39 | 12.09 ± 1.42 µg/mL (≈ 37 µM) | 21.01 ± 2.05 µg/mL (≈ 64.4 µM) | 13.98 ± 0.57 µg/mL (≈ 42.8 µM) | Cc1ccc(-c2nnc(Nc3ccc(N)cc3)c3ccccc23)cc1 [Compound C1] | 192.7 ± 16.79 µg/mL (≈ 590 µM) | – | – | –

Row | Compound | SI Caco-2 (Caco-2 cells) | IC50 Caco-2 (Caco-2 cells) | IC50 A549 (A549 cells [1]) | IC50 MDA (MDA cells) | IC50 Wi-38 (Wi-38 cells) | Migration inhibition (A549 cells [2]) | Inhibition zone (S. aureus) | Inhibition zone (S. mutans)
3 | Nc1ccc(Nc2c3ccccc3nc3ccccc23)cc1 [Compound B1] | 8.07 ± 0.59 | 24.15 ± 1.76 µg/mL (≈ 84.6 µM) | 16.93 ± 1.88 µg/mL (≈ 59.3 µM) | 8.92 ± 0.67 µg/mL (≈ 31.3 µM) | 195.0 ± 14.41 µg/mL (≈ 683 µM) | 74.63% | about 13 mm | about 13 mm
